# In article PMC2883612 (Journal of nuclear medicine : official publication, Society …, 2009):
# Key:
# [1] = Pharmacologic effects and safety tests in human subjects after PET; format: in vivo
# [2] = Plasma metabolite analysis and plasma input function; format: in vivo; details: human; for metabolites in plasma radioactivity: 30 min after injection; for plasma clearance time constant: monoexponential fitting from 20 to 60 min
# [3] = cited from earlier work
# TSPO [4] = details: rat model of neurodegeneration; cited from earlier work
# TSPO [5] = details: in vivo; cited from earlier work
# TSPO [6] = target: TSPO (Homo sapiens, UniProt P30536); test: Brain PET with arterial input, compartmental modeling; details: 1-tissue model, mean ± SD
# TSPO (Homo sapiens, UniProt P30536), sequence (P30536 whole entry): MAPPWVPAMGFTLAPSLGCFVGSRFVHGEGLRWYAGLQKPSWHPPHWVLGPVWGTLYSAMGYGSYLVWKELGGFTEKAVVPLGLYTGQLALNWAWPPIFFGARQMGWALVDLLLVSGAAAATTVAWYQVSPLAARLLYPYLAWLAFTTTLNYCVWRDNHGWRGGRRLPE
structure (smiles),measurement,setting,value
"CCN(CC)C(=O)Cc1c(-c2ccc(OC)cc2)nn2c(C)cc(C)nc12 [^11C-DPA-713, ^11C-N,N-diethyl-2-[2-(4-methoxyphenyl)-5,7-dimethyl-pyrazolo[1,5-a]pyrimidin-3-yl]-acetamide]",blood tests before and after the scan,[1]; healthy human subjects,no abnormalities or interval changes
same,side effects after the PET scans,[1]; healthy human subjects,No side effects were reported
same,pharmacologic effects,"[1]; healthy human subjects, intravenous bolus",No pharmacologic effects were noted
same,12-lead ECGs,[1]; within 1 wk before and after injection,no abnormalities or interval changes
same,metabolites in plasma radioactivity,[2],20%
same,plasma clearance time constant,[2],42 min
same,logP,[3],2.4
same,"specificity in discriminating between normal and lesioned brain, vs ^11C-R-PK11195",TSPO [4],greater specificity
CCC(C)N(C)C(=O)c1cc2ccccc2c(-c2ccccc2Cl)n1 (stereo not shown) [^11C-R-PK11195],metabolites in plasma radioactivity,[2],40%
same,plasma clearance time constant,[2],37 min
same,blocking effect on ^11C-DPA-713 brain uptake,TSPO [5],potent blockade of brain uptake
same,K1 value,TSPO [6]; Caudate,0.020 ± 0.012 (24.9)
same,VT value,TSPO [6]; Caudate,0.25 ± 0.09 (23.1)
same,K1 value,TSPO [6]; Cerebellar cortex,0.025 ± 0.016 (12.5)
same,VT value,TSPO [6]; Cerebellar cortex,0.32 ± 0.08 (11.9)
same,K1 value,TSPO [6]; Frontal,0.023 ± 0.013 (14.6)
same,VT value,TSPO [6]; Frontal,0.33 ± 0.10 (13.9)
same,K1 value,TSPO [6]; Pons,0.019 ± 0.016 (23.1)
same,VT value,TSPO [6]; Pons,0.42 ± 0.13 (33.3)
same,K1 value,TSPO [6]; Putamen,0.026 ± 0.015 (10.3)
same,VT value,TSPO [6]; Putamen,0.34 ± 0.06 (9.5)
same,K1 value,TSPO [6]; Temporal,0.016 ± 0.011 (22.0)
same,VT value,TSPO [6]; Temporal,0.40 ± 0.08 (29.4)
same,K1 value,TSPO [6]; Thalamus,0.025 ± 0.013 (12.0)
same,VT value,TSPO [6]; Thalamus,0.42 ± 0.07 (11.9)
